# Experimental data reported in ChEMBL document CHEMBL4334510, “Antitumor Activity of Vanicoside B Isolated from Persicaria dissitiflora by Targeting CDK8 in Triple-Negative Breast Cancer Cells” (J Nat Prod, 2019).
# Activity calls are given as the source filed them. The rule behind the calls is not given here.
# Experiments:
# Mus musculus [1] = test: Downregulation of phosphorylated STAT1 expression at ser727 residue in Balb/c mouse xenografted with human MDA-MB-231 cells at 5 mg/kg, ip administered 3 times per week for 29 days by DAB staining based immunohistochemical analysis; format: functional, organism-based
# [2] = Toxicity in Balb/c mouse xenografted with human MDA-MB-231 cells assessed as reduction in body weight at 5 mg/kg, ip ip administered 3 times per week and measured 2 times per week for 29 days; format: organism-based; conditions: in vivo, 696 h
# Mus musculus [3] = test: Downregulation of Ki67 expression in Balb/c mouse xenografted with human MDA-MB-231 cells at 5 mg/kg, ip administered 3 times per week for 29 days by DAB staining based immunohistochemical analysis; format: functional, organism-based
# Mus musculus [4] = test: Downregulation of AXL expression in Balb/c mouse xenografted with human MDA-MB-231 cells at 5 mg/kg, ip administered 3 times per week for 29 days by DAB staining based immunohistochemical analysis; format: functional, organism-based
# HCC38 [5] = test: Inhibition of epithelial-mesenchymal transition in human HCC38 cells reduction in N-cadherin expression at 5 uM after 24 hrs by RT-PCR analysis; format: functional, cell-based
# MDA-MB-231 [6] = test: Antimigratory activity against human MDA-MB-231 cells at 1.25 to 5 uM after 24 hrs by scratch wound healing based microscopic analysis; format: functional, cell-based
# HCC38 [7] = test: Inhibition of epithelial-mesenchymal transition in human HCC38 cells reduction in vimentin protein expression after 24 hrs by Western blot analysis; format: functional, cell-based
# [8] = molecular target: Cyclin-dependent kinase 8 (Homo sapiens) (UniProt P49336); test: Inhibition of CDK8 in human HCC38 cells assessed as reduction in AXL expression after 24 hrs by Western blot analysis; format: cell-based
# HCC38 [9] = test: Induction of apoptosis in human HCC38 cells assessed as increase in PARP cleavage after 48 hrs by Western blot analysis; format: functional, cell-based
# MDA-MB-231 [10] = test: Inhibition of epithelial-mesenchymal transition in human MDA-MB-231 cells reduction in N-cadherin expression at 5 uM after 24 hrs by RT-PCR analysis; format: functional, cell-based
# HCC38 [11] = test: Cell cycle arrest in human HCC38 cells assessed as increase in accumulation of cells at sub-G1 phase at 2.5 to 10 uM by PI/RNase staining based flow cytometric analysis; format: functional
# [12] = molecular target: Cyclin-dependent kinase 8 (Homo sapiens) (UniProt P49336); test: Inhibition of CDK8 in human HCC38 cells assessed as reduction in skp2 expression after 48 hrs by Western blot analysis; format: cell-based
# [13] = molecular target: Cyclin-dependent kinase 8 (Homo sapiens) (UniProt P49336); test: Inhibition of CDK8 in human MDA-MB-231 cells assessed as reduction in STAT3 phosphorylation after 24 hrs by Western blot analysis; format: cell-based
# HCC38 [14] = test: Induction of apoptosis in human HCC38 cells at 2.5 to 20 uM after 48 hrs by Annexin-V/PI staining based flow cytometric analysis; format: functional, cell-based
# HCC38 [15] = test: Inhibition of epithelial-mesenchymal transition in human HCC38 cells reduction in BMP4 protein expression after 24 hrs by Western blot analysis; format: functional, cell-based
# [16] = molecular target: Cyclin-dependent kinase 8 (Homo sapiens) (UniProt P49336); test: Inhibition of CDK8 in human HCC38 cells assessed as reduction in S6 phosphorylation after 24 hrs by Western blot analysis; format: cell-based
# [17] = molecular target: Cyclin-dependent kinase 8 (Homo sapiens) (UniProt P49336); test: Inhibition of CDK8 in human MDA-MB-231 cells assessed as increase in P27 expression after 48 hrs by Western blot analysis; format: cell-based
# MDA-MB-231 [18] = test: Inhibition of epithelial-mesenchymal transition in human MDA-MB-231 cells increase in E-cadherin expression at 5 uM after 24 hrs by RT-PCR analysis; format: functional, cell-based
# MDA-MB-231 [19] = test: Induction of apoptosis in human MDA-MB-231 cells assessed as increase in PARP cleavage after 48 hrs by Western blot analysis; format: functional, cell-based
# [20] = molecular target: Cyclin-dependent kinase 8 (Homo sapiens) (UniProt P49336); test: Inhibition of CDK8 in human MDA-MB-231 cells assessed as reduction in AXL expression after 24 hrs by Western blot analysis; format: cell-based
# MDA-MB-231 [21] = test: Inhibition of epithelial-mesenchymal transition in human MDA-MB-231 cells reduction in BMP4 protein expression after 24 hrs by Western blot analysis; format: functional, cell-based
# HCC38 [22] = test: Inhibition of epithelial-mesenchymal transition in human HCC38 cells reduction in beta catenin protein expression after 24 hrs by Western blot analysis; format: functional, cell-based
# Mus musculus [23] = test: Downregulation of AXL expression in Balb/c mouse xenografted with human MDA-MB-231 cells at 5 to 20 mg/kg, ip administered 3 times per week for 29 days by DAB staining based immunohistochemical analysis; format: functional, organism-based
# [24] = molecular target: Cyclin-dependent kinase 8 (Homo sapiens) (UniProt P49336); test: Inhibition of CDK8 in human HCC38 cells assessed as reduction in STAT3 phosphorylation after 24 hrs by Western blot analysis; format: cell-based
# MDA-MB-231 [25] = test: Inhibition of epithelial-mesenchymal transition in human MDA-MB-231 cells reduction in vimentin protein expression after 24 hrs by Western blot analysis; format: functional, cell-based
# Mus musculus [26] = test: Downregulation of phosphorylated STAT1 expression at ser727 residue in Balb/c mouse xenografted with human MDA-MB-231 cells at 5 to 20 mg/kg, ip administered 3 times per week for 29 days by DAB staining based immunohistochemical analysis; format: functional, organism-based
# [27] = molecular target: Cyclin-dependent kinase 8 (Homo sapiens) (UniProt P49336); test: Inhibition of CDK8 in human HCC38 cells assessed as reduction in HK1 expression at 10 uM after 24 hrs by RT-PCR analysis; format: cell-based
# HCC38 [28] = test: Inhibition of colony formation in human HCC38 cells assessed as reduction in colony size at 20 uM after 14 days by crystal violet staining based light microscopic analysis; format: functional, cell-based
# HCC38 [29] = test: Antimigratory activity against human HCC38 cells at 1.25 to 5 uM after 24 hrs by scratch wound healing based microscopic analysis; format: functional, cell-based
# [30] = molecular target: Cyclin-dependent kinase 8 (Homo sapiens) (UniProt P49336); test: Inhibition of CDK8 in human MDA-MB-231 cells assessed as reduction in HK1 expression at 10 uM after 24 hrs by RT-PCR analysis; format: cell-based
# [31] = molecular target: Cyclin-dependent kinase 8 (Homo sapiens) (UniProt P49336); test: Inhibition of CDK8 in human HCC38 cells assessed as increase in P27 expression after 48 hrs by Western blot analysis; format: cell-based
# [32] = molecular target: Cyclin-dependent kinase 8 (Homo sapiens) (UniProt P49336); test: Inhibition of CDK8 in human HCC38 cells assessed as reduction in STAT1 phosphorylation at Ser727 residue after 24 hrs by Western blot analysis; format: cell-based
# HCC38 [33] = test: Inhibition of colony formation in human HCC38 cells assessed as reduction in number of colonies at 2.5 to 20 uM after 14 days by crystal violet staining based light microscopic analysis; format: functional, cell-based
# [34] = molecular target: Cyclin-dependent kinase 8 (Homo sapiens) (UniProt P49336); test: Inhibition of CDK8 in human MDA-MB-231 cells assessed as reduction in skp2 expression after 48 hrs by Western blot analysis; format: cell-based
# HCC38 [35] = test: Antiproliferative activity against human HCC38 cells assessed as reduction in cell viability after 72 hrs by SRB assay; format: functional, cell-based
# MDA-MB-231 [36] = test: Antiproliferative activity against human MDA-MB-231 cells assessed as reduction in cell viability after 72 hrs by SRB assay; format: functional, cell-based
# HCC38 [37] = test: Inhibition of epithelial-mesenchymal transition in human HCC38 cells increase in E-cadherin expression at 5 uM after 24 hrs by RT-PCR analysis; format: functional, cell-based
# MDA-MB-231 [38] = test: Antitumour activity against human MDA-MB-231 cells xenografted in Balb/c mouse assessed as reduction in tumour volume at 5 mg/kg, ip administered 3 times per week and measured 2 times per week for 29 days relative to control; format: functional; parameters: scale not given: the % may be the effect or the level left
# [39] = molecular target: Cyclin-dependent kinase 8 (Homo sapiens) (UniProt P49336); test: Inhibition of CDK8 in human MDA-MB-231 cells assessed as increase in P27 expression at 10 uM after 24 hrs by RT-PCR analysis; format: cell-based
# [40] = molecular target: Cyclin-dependent kinase 8 (Homo sapiens) (UniProt P49336); test: Inhibition of CDK8 in human HCC38 cells assessed as increase in P27 expression at 10 uM after 24 hrs by RT-PCR analysis; format: cell-based
# MDA-MB-231 [41] = test: Cell cycle arrest in human MDA-MB-231 cells assessed as increase in accumulation of cells at sub-G1 phase at 2.5 to 10 uM by PI/RNase staining based flow cytometric analysis; format: functional
# [42] = molecular target: Cyclin-dependent kinase 8 (Homo sapiens) (UniProt P49336); test: Inhibition of CDK8 in human MDA-MB-231 cells assessed as reduction in STAT1 phosphorylation at Ser727 residue after 24 hrs by Western blot analysis; format: cell-based
# [43] = molecular target: Cyclin-dependent kinase 8 (Homo sapiens) (UniProt P49336); test: Inhibition of CDK8 in human MDA-MB-231 cells assessed as reduction in S6 phosphorylation after 24 hrs by Western blot analysis; format: cell-based
# MDA-MB-231 [44] = test: Antitumour activity against human MDA-MB-231 cells xenografted in Balb/c mouse assessed as reduction in tumour volume at 20 mg/kg, ip administered 3 times per week and measured 2 times per week for 29 days relative to control; format: functional; parameters: scale not given: the % may be the effect or the level left
# MDA-MB-231 [45] = test: Inhibition of colony formation in human MDA-MB-231 cells assessed as reduction in number of colonies at 2.5 to 20 uM after 14 days by crystal violet staining based light microscopic analysis; format: functional, cell-based
# [46] = Toxicity in Balb/c mouse xenografted with human MDA-MB-231 cells assessed as effect on body weight at 5 to 20 mg/kg, ip ip administered 3 times per week and measured 2 times per week for 29 days; format: organism-based; conditions: in vivo, 696 h
# MDA-MB-231 [47] = test: Inhibition of colony formation in human MDA-MB-231 cells assessed as reduction in colony size at 2.5 to 20 uM after 14 days by crystal violet staining based light microscopic analysis; format: functional, cell-based
# MDA-MB-231 [48] = test: Induction of apoptosis in human MDA-MB-231 cells at 2.5 to 20 uM after 48 hrs by Annexin-V/PI staining based flow cytometric analysis; format: functional, cell-based
# Mus musculus [49] = test: Downregulation of Ki67 expression in Balb/c mouse xenografted with human MDA-MB-231 cells at 5 to 20 mg/kg, ip administered 3 times per week for 29 days by DAB staining based immunohistochemical analysis; format: functional, organism-based
# MDA-MB-231 [50] = test: Inhibition of epithelial-mesenchymal transition in human MDA-MB-231 cells reduction in beta catenin protein expression after 24 hrs by Western blot analysis; format: functional, cell-based
# Chain of Cyclin-dependent kinase 8 (Homo sapiens) (P49336 whole entry): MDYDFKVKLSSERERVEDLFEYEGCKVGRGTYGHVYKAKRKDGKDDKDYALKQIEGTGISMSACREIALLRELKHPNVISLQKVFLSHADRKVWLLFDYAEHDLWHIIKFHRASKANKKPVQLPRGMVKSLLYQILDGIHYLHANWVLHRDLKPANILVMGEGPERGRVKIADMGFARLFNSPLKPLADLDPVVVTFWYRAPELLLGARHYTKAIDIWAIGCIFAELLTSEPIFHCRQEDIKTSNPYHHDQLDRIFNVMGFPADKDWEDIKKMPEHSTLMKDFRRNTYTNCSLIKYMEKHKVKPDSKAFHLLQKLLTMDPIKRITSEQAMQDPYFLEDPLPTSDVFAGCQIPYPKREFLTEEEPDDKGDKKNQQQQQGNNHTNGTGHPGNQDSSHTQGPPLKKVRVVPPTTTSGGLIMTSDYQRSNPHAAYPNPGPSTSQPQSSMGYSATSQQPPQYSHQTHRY
smiles,measurement,setting,value
CC(=O)O[C@H]1C(=O)[C@@]2(C)[C@H]([C@H](OC(=O)c3ccccc3)[C@]3(O)C[C@H](OC(=O)[C@H](O)[C@@H](NC(=O)c4ccccc4)c4ccccc4)C(C)=C1C3(C)C)[C@]1(OC(C)=O)CO[C@@H]1C[C@@H]2O [PACLITAXEL],Activity,Mus musculus [1],inactive
same,Activity,[2],Toxic
same,Activity,Mus musculus [3],Active
same,Activity,Mus musculus [4],inactive
COc1cc(/C=C/C(=O)OC[C@H]2O[C@H](O[C@]3(COC(=O)/C=C/c4ccc(O)cc4)O[C@H](COC(=O)/C=C/c4ccc(O)cc4)[C@@H](O)[C@@H]3OC(=O)/C=C/c3ccc(O)cc3)[C@H](O)[C@@H](O)[C@@H]2O)ccc1O [VANICOSIDE B],inhibition,HCC38 [5],Active
same,Activity,MDA-MB-231 [6],Active
same,inhibition,HCC38 [7],Dose-dependent effect
same,inhibition,[8],Dose-dependent effect
same,Activity,HCC38 [9],Dose-dependent effect
same,inhibition,MDA-MB-231 [10],Active
same,Activity,HCC38 [11],Active
same,inhibition,[12],Dose-dependent effect
same,inhibition,[13],Dose-dependent effect
same,Activity,HCC38 [14],Active
same,inhibition,HCC38 [15],Dose-dependent effect
same,inhibition,[16],Dose-dependent effect
same,inhibition,[17],Dose-dependent effect
same,inhibition,MDA-MB-231 [18],Active
same,Activity,MDA-MB-231 [19],Dose-dependent effect
same,inhibition,[20],Dose-dependent effect
same,inhibition,MDA-MB-231 [21],Dose-dependent effect
same,inhibition,HCC38 [22],Dose-dependent effect
same,Activity,Mus musculus [23],Active
same,inhibition,[24],Dose-dependent effect
same,inhibition,MDA-MB-231 [25],Dose-dependent effect
same,Activity,Mus musculus [26],Active
same,inhibition,[27],Active
same,inhibition,HCC38 [28],Active
same,Activity,HCC38 [29],Active
same,inhibition,[30],Active
same,inhibition,[31],Dose-dependent effect
same,inhibition,[32],Dose-dependent effect
same,inhibition,HCC38 [33],Active
same,inhibition,[34],Dose-dependent effect
same,Activity,HCC38 [35],Dose-dependent effect
same,Activity,MDA-MB-231 [36],Dose-dependent effect
same,IC50,"MDA-MB-231 [36]; MDA-MB-231, 72 h",9 µM
same,inhibition,HCC38 [37],Active
same,Activity,MDA-MB-231 [38],53.85%
same,inhibition,[39],Active
same,inhibition,[40],Active
same,Activity,MDA-MB-231 [41],Active
same,inhibition,[42],Dose-dependent effect
same,inhibition,[43],Dose-dependent effect
same,Activity,MDA-MB-231 [44],65.72%
same,inhibition,MDA-MB-231 [45],Active
same,Activity,[46],Non-Toxic
same,inhibition,MDA-MB-231 [47],Active
same,Activity,MDA-MB-231 [48],Active
same,Activity,Mus musculus [49],Active
same,inhibition,MDA-MB-231 [50],Dose-dependent effect
